# According to US20070128217A1 (priority 2003, published 2007):
# Assays:
# [1] = test system: antibodies in sera from SARS patients (sera 1a, 1b, 2, 6, 37, 62, London, SARS-yellow, SARS-green); format: binding, human; design: Binding of serum 6 to linear peptides of protein X1 of SARS-CoV Urbani / Binding of serum 37 to linear peptides of protein X1 of SARS-CoV Urbani / Binding of serum 6 to looped/cyclic peptide (PEPSCAN-ELISA) / Binding of serum 37 to looped/cyclic peptide (PEPSCAN-ELISA) / Binding of serum 37 to looped/cyclic peptides of protein X1 of SARS-CoV Urbani / Binding of serum 6 to linear peptides of protein X2 / Binding of serum 37 to linear peptides of protein X2 / Binding of serum 37 to looped/cyclic peptides of protein X2 of SARS-CoV Urbani / Binding of serum 6 to linear peptides of protein M of SARS-CoV Urbani / Binding of serum 37 to linear peptides of protein M of SARS-CoV Urbani / Binding of serum 6 to looped/cyclic peptides of protein M of SARS-CoV Urbani / Binding of serum 37 to looped/cyclic peptides of protein M of SARS-CoV Urbani / Binding of serum 6 to linear peptides of protein X3 of SARS-CoV Urbani / Binding of serum 37 to linear peptides of protein X3 of SARS-CoV Urbani / Binding of serum 37 to looped/cyclic peptides of protein X3 of SARS-CoV Urbani / Binding of serum 6 to linear peptides of protein X4 of SARS-CoV Urbani / Binding of serum 37 to linear peptides of protein X4 of SARS-CoV Urbani / Binding of serum 37 to looped/cyclic peptides of protein X4 of SARS-CoV Urbani / Binding of serum 6 to linear peptides of protein X5 of SARS-CoV Urbani / Binding of serum 37 to linear peptides of protein X5 of SARS-CoV Urbani / Binding of serum 37 to looped/cyclic peptides of protein X5 of SARS-CoV Urbani / Binding of serum 6 to linear peptides of protein N of SARS-CoV Urbani / Binding of serum 37 to linear peptides of protein N of SARS-CoV Urbani / Binding of serum 6 to linear peptide (PEPSCAN-ELISA) / Binding of serum 1a to looped/cyclic peptides of protein N of SARS-CoV Urbani / Binding of serum 1b to looped/cyclic peptides of protein N of SARS-CoV Urbani / Binding of serum 2 to looped/cyclic peptides of protein N of SARS-CoV Urbani / Binding of serum 6 to looped/cyclic peptides of protein N of SARS-CoV Urbani / Binding of serum 37 to looped/cyclic peptides of protein N of SARS-CoV Urbani / Binding of serum 62 to looped/cyclic peptides of protein N of SARS-CoV Urbani / Binding of serum London to looped/cyclic peptides of protein N of SARS-CoV Urbani / Binding of serum SARS-green to looped/cyclic peptides of protein N of SARS-CoV Urbani: unit not given here
# [2] = test system: control sera (pooled serum of ten healthy LUMC hospital workers; commercial negative donor pooled serum from the Dutch bloodbank); format: binding, human; design: Binding of Control serum LUMC to linear peptides / Binding of Control serum Blood-bank to linear peptides / Binding of Control serum LUMC to looped peptides / Binding of Control Serum Blood-Bank to Looped peptides / Binding of Control serum LUMC to linear peptides of the protein M of SARS-CoV Urbani / Binding of Control serum Blood-bank to linear peptides of the protein M of SARS-CoV Urbani / Binding of Control serum LUMC to looped peptides of the protein M of SARS-CoV Urbani / Binding of Control Serum Blood-Bank to Looped peptides of the protein M of SARS-CoV Urbani: unit not given here
# [3] = test system: rabbit serum obtained by immunizing a rabbit with the SARS-CoV strain Frankfurt 1; format: binding; design: Binding of a rabbit serum to linear peptides / Binding of a rabbit serum to looped peptides / Rabbit serum linear peptides / Rabbit serum looped peptides / Binding of a rabbit serum to linear peptides of protein N of SARS-CoV Urbani (Rabbit serum linear peptides) / Binding of a rabbit serum to looped/cyclic peptides of protein N of SARS-CoV Urbani (Rabbit serum looped peptides): unit not given here
# [4] = test system: recombinant human anti-SARS-CoV antibody 03-018; format: binding; design: Binding of antibody 03-018 to linear peptides of the N protein of SARS-CoV Urbani / Binding of antibody 03-018 to looped/cyclic peptides of the N protein of SARS-CoV Urbani: unit not given here
Sequence,Binding of serum 1a to looped/cyclic peptides of protein N of SARS-CoV Urbani [1],Binding of serum 1b to looped/cyclic peptides of protein N of SARS-CoV Urbani [1],Binding of serum 2 to looped/cyclic peptides of protein N of SARS-CoV Urbani [1],Binding of serum 6 to looped/cyclic peptides of protein N of SARS-CoV Urbani [1],Binding of serum 37 to looped/cyclic peptides of protein N of SARS-CoV Urbani [1],Binding of serum 62 to looped/cyclic peptides of protein N of SARS-CoV Urbani [1],Binding of serum London to looped/cyclic peptides of protein N of SARS-CoV Urbani [1],Binding of serum SARS-green to looped/cyclic peptides of protein N of SARS-CoV Urbani [1],Binding of serum SARS-yellow to looped/cyclic peptides of protein N of SARS-CoV Urbani [1],Binding of Control Serum Blood-Bank to Looped peptides [2],Binding of Control serum Blood-bank to linear peptides [2],Binding of Control serum LUMC to linear peptides [2],Binding of Control serum LUMC to looped peptides [2],Binding of a rabbit serum to linear peptides of protein N of SARS-CoV Urbani (Rabbit serum linear peptides) [3],Binding of a rabbit serum to looped/cyclic peptides of protein N of SARS-CoV Urbani (Rabbit serum looped peptides) [3],Binding of antibody 03-018 to linear peptides of the N protein of SARS-CoV Urbani [4],Binding of antibody 03-018 to looped/cyclic peptides of the N protein of SARS-CoV Urbani [4],Binding of serum 1a to linear peptides of protein N of SARS-CoV Urbani [1],Binding of serum 1b to linear peptides of protein N of SARS-CoV Urbani [1],Binding of serum 2 to linear peptides of protein N of SARS-CoV Urbani [1],also measured
NSRNSTPGSSRGNSP,0.6,0.5,0.5,0.4,0.6,0.5,0.4,0.3,0.3,0.7,0.9,0.7,0.7,0.2,0.5,0.1,0.2,,,,Binding of serum 1a to linear peptide (PEPSCAN-ELISA) [1]: 0.6; Binding of serum 1b to linear peptide (PEPSCAN-ELISA) [1]: 0.4; Binding of serum 2 to linear peptide (PEPSCAN-ELISA) [1]: 0.3; Binding of serum 6 to linear peptide (PEPSCAN-ELISA) [1]: 0.4; Binding of serum 37 to linear peptide (PEPSCAN-ELISA) [1]: 0.9; Binding of serum 62 to linear peptide (PEPSCAN-ELISA) [1]: 0.9; Binding of serum London to linear peptide (PEPSCAN-ELISA) [1]: 1.4; Binding of serum SARS-green to linear peptide (PEPSCAN-ELISA) [1]: 0.4; Binding of serum SARS-yellow to linear peptide (PEPSCAN-ELISA) [1]: 1.0
NTNSGPDDQIGYYRR,0.5,0.4,0.5,0.3,0.9,0.8,0.5,0.6,0.6,0.7,0.7,0.7,0.9,0.1,0.6,0.1,0.3,0.2,0.1,0.2,Binding of serum 6 to linear peptides of protein N of SARS-CoV Urbani [1]: 0.2; Binding of serum 37 to linear peptides of protein N of SARS-CoV Urbani [1]: 0.6; Binding of serum 62 to linear peptides of protein N of SARS-CoV Urbani [1]: 0.6; Binding of serum London to linear peptides of protein N of SARS-CoV Urbani [1]: 0.4; Binding of serum SARS-green to linear peptides of protein N of SARS-CoV Urbani [1]: 0.3; Binding of serum SARS-yellow to linear peptides of protein N of SARS-CoV Urbani [1]: 0.7
PAADMDDFSRQLQNS,0.3,0.1,0.3,1.1,0.6,0.3,0.3,0.3,0.3,,,,,0.2,0.3,0.1,0.2,0.3,0.2,0.2,Binding of serum 6 to linear peptides of protein N of SARS-CoV Urbani [1]: 0.6; Binding of serum 37 to linear peptides of protein N of SARS-CoV Urbani [1]: 0.8; Binding of serum 62 to linear peptides of protein N of SARS-CoV Urbani [1]: 0.7; Binding of serum London to linear peptides of protein N of SARS-CoV Urbani [1]: 0.6; Binding of serum SARS-green to linear peptides of protein N of SARS-CoV Urbani [1]: 0.3; Binding of serum SARS-yellow to linear peptides of protein N of SARS-CoV Urbani [1]: 0.5; Control Serum Blood-Bank Looped peptides [2]: 0.3; Control serum Blood-bank linear peptides [2]: 0.8; Control serum LUMC linear peptides [2]: 0.8; Control serum LUMC looped peptides [2]: 0.3
PDDQIGYYRRATRRV,0.4,0.3,0.6,0.5,0.9,0.8,0.5,0.8,0.7,0.8,0.6,0.6,0.8,,,0.1,0.3,0.2,0.1,0.2,Binding of serum 6 to linear peptides of protein N of SARS-CoV Urbani [1]: 0.2; Binding of serum 37 to linear peptides of protein N of SARS-CoV Urbani [1]: 0.6; Binding of serum 62 to linear peptides of protein N of SARS-CoV Urbani [1]: 0.5; Binding of serum London to linear peptides of protein N of SARS-CoV Urbani [1]: 0.4; Binding of serum SARS-green to linear peptides of protein N of SARS-CoV Urbani [1]: 0.3; Binding of serum SARS-yellow to linear peptides of protein N of SARS-CoV Urbani [1]: 0.6; Recognition of the peptide by the rabbit serum [3]: recognized
